Earlier results, collected in patent publication US20040192598A1, “Composition and method of alleviating adverse side effects and/or enhancing efficacy of agents that inhibit aromatase” (priority 2000, published 2004).
Read-outs that look alike come from different tables or passages of the source.

How the values were obtained:
aromatase = target: T1, aromatase (Homo sapiens, UniProt P11511); details: treatment for breast cancer
T1 construct: host or cells: patients (in vivo, endogenous enzyme)
T1 sequence (P11511 1-503): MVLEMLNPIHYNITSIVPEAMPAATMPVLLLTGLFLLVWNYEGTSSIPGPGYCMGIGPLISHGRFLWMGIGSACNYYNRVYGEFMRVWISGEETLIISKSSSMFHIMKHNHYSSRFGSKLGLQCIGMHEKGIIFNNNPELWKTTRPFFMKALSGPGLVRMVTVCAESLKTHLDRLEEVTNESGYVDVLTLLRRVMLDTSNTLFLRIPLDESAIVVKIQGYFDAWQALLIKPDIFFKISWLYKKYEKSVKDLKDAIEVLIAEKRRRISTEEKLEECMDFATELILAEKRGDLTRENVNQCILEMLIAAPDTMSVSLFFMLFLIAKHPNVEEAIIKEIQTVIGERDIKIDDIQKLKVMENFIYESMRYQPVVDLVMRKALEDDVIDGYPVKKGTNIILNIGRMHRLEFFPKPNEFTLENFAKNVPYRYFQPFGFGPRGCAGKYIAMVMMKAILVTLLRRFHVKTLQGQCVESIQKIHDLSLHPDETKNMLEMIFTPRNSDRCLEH

N#Cc1ccc(C(c2ccc(C#N)cc2)n2cncn2)cc1 [Letrozole]
serum estrogen levels (aromatase): suppress serum estrogen levels to the limit of assay detection

CC(C)(C#N)c1cc(Cn2cncn2)cc(C(C)(C)C#N)c1 [anastrozole]
serum estrogen levels (aromatase): suppress serum estrogen levels to the limit of assay detection

Clc1ccccc1C(c1ccccc1)(c1ccccc1)n1ccnc1 [clotrimazole]
relative risk for spontaneous abortion (in vivo): increased relative risk was also noted

C[C@@H]1[C@H](O)[C@@H](C)/C=C/C=C/CC/C=C/C=C/C=C/C=C/C(O[C@H]2O[C@H](C)[C@@H](O)[C@H](N)[C@@H]2O)CC2O[C@](O)(CC(O)C(O)CCC(O)CC(O)CC(O)CC(=O)O[C@H]1C)CC(O)C2C(=O)O (stereo partly shown) [nystatin]
relative risk for spontaneous abortion (first-trimester exposure, independent of drug therapy indication): not
